Experimental data taken from article PMC11233548 (Communications Biology, 2024).
“Also recorded” adds a separate entry of the source. Where two headings read alike, the source gives them in different places. Starred links: 1 amine or outer side, 2 acyl side, 3 side chain; linkers in the order of their positions; H or OH if unused. Primed or numbered codes have the meaning given here. No end group written: not given here. *: point of attachment. PEG5′ = linker from Fmoc-PEG5-OH (18-amino-4,7,10,13-tetraoxaoctadecanoic acid), O=C(CCOCCOCCOCCOCCCCCN[*:1])[*:2]; fluorescein = fluorescein label on the N-terminal amino group, attached via an aminohexanoic acid linker; FITC = O=C1OC2(c3ccc(O)cc3Oc3cc(O)ccc32)c2ccc(NC(=S)*)cc21; Biotin = O=C1N[C@H]2[C@H](CS[C@H]2CCCCC(=O)*)N1; Ahx = NCCCCCC(=O)O

Experiments:
Gal1 (Homo sapiens) [1] = biological target: Gal1 (Homo sapiens) (UniProt P09382); conditions: cited from earlier work
Target sequence in this assay (P09382 2-135): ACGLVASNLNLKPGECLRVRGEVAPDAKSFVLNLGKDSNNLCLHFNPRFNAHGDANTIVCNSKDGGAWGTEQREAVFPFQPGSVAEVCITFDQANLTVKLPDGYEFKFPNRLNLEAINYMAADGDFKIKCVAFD

GST = test: Direct fluorescence polarization binding of F-L5UR to GST (control); conditions: 10 nM F-L5UR, n = 3
Procedure: For the direct binding assay, the GST-B-RBD, or GST, was 2-fold diluted in an assay buffer composed of 50 mM Tris HCl pH 7.4, 50 mM NaCl, 5 mM DTT, and 0.005% (v/v) Tween 20 in a black low volume, round bottom 384-well plate (Corning, #4514). Then 10 nM F-L5UR peptide was added to each well and incubated for 20 min at ~22 °C on a horizontal shaker. The fluorescence polarization measurement was performed on the Clariostar (BMG Labtech) plate reader, using a fluorescence polarization module (λexcitation 482 ± 8 nm and λemission 530 ± 20 nm). The milli fluorescence polarization, mP, was determined from the measured fluorescence intensities, calculated according to, mP=1000×Ih−Iv/Ih+Iv where Iv and Ih are the fluorescence emission intensities detected with vertical and horizontal polarization, respectively. The mP was plotted against the concentration of the GST-RBD and the KD value of the F-L5UR was calculated using a quadratic equation, y=Af+Ab−Af*Lt+KD+x−(Lt+KD+x)^2−4*Lt*x/2Lt

H-RasG12V nanoclustering [2] = test: H-RasG12V nanoclustering-BRET in HEK cells; type: cell-based, human; conditions: n = 3
[3] = tested on: MIA PaCa-2 cells (pERK, pAkt); test: Immunoblot of EGF-induced pERK and pAkt in MIA PaCa-2; type: cell-based, human; conditions: intermediate concentrations, 2 h
Gal1/B-RBD = Gal1/B-RBD (Homo sapiens, UniProt P15056); test: Gal1/B-RBD BRET in HEK cells; type: cell-based; conditions: peptide added to HEK cells, 0.1 µM to 100 µM, 2 h incubation; donor:acceptor 1:10; n ≥ 2
Sequence of Gal1/B-RBD (P15056 155-227): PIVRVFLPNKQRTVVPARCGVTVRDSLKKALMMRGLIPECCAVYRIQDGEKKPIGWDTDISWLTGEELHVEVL

[4] = tested on: Hs 578 T cells (pERK, pAkt); test: Immunoblot of EGF-induced pERK and pAkt in Hs 578 T; type: cell-based, human; conditions: intermediate concentrations, 2 h
Gal1 (Homo sapiens) [5] = biological target: Gal1 (Homo sapiens) (UniProt P09382); conditions: cited from earlier work; remark: listed apart in the source
His-tagged Gal1 = test: Competitive fluorescence polarization, displacement of F-L5UR from His-tagged Gal1; type: binding; conditions: F-L5UR (5 nM), Gal1 (5 µM); n = 2
Gal1/C-RBD = test: FLIM-FRET Gal1/C-RBD interaction in HEK cells; type: cell-based, rat Gal1; C-RBD of human C-Raf; HEK cells; conditions: mGFP-Gal1 / mRFP-C-RBD 1:3, expression (24 h) of plasmid or compound, n = 3
Gal1 [6] = conditions: residues 22–45 of L5UR, opposite side of the carbohydrate binding site of Gal1; ref 38 (Elantak et al.); cited from earlier work
Text: (Supplementary Fig. 2a). […] We hypothesized that the 52-mer L5UR peptide, which was derived from a Gal1 interaction partner, could act as a Raf-RBD/Gal1-interface inhibitor. Its residues 22–45 were previously ... || page 9: Question 3-2. The authors measure the affinity of L5UR to BRAF GST-RBD using fluorescence polarization. The affinity is an increase is 40-fold over the affinity of this peptide to Gal1 – this is a significant enhancement, do the authors have an explanation for this? […] In the pull-downs containing both Gal1 and GST-RBD both proteins are pulled down to equal levels, again this is surprising as one would exp ...

H-RasG12V nanoclustering [7] = test: Electron microscopy-based analysis of H-RasG12V nanoclustering in BHK cells; type: cell-based, baby hamster kidney (BHK) cells; conditions: membrane sheets of Gal1-expressing BHK cells; n = 15
Text: To quantify the nanoclustering of a component integral to the plasma membrane (PM), the apical PM sheets of baby hamster kidney (BHK) cells expressing a GFP-tagged H-Ras construct were fixed with 4% (w/v) PFA and 0.1% (w/v) glutaraldehyde. GFP anchored to the PM sheets was probed with 4.5 nm gold particles pre-coupled to anti-GFP antibody. Following embedment with methyl cellulose, the PM sheets were imaged using transmission electron microscopy (JEOL JEM-1400). Using the coordinates of every gold particle, Ripley’s K-function calculated the extent of nanoclustering of gold particles within a selected 1 μm^2 PM area: K(r)=An^−2∑i≠jwij1(∥xi−xj∥≤r) Lr−r=Kr/π−r where n gold particles populate in an intact area of A; r is the length between 1 and 240 nm; || ^. || indicates Euclidean distance where 1(^.) = 1 if ||xi − xj|| ≤ r and 1(^.) = 0 if ||xi − xj|| > r; K(r) specifies the univariate K-function. wij^−1 is a parameter used for an unbiased edge correction and characterizes the proportion of the circumference of a circle that has the center at xi and radius ||xi-xj||. Monte Carlo simulations estimate the 99% confidence interval (99% C.I.), which is then used to linearly transform K(r) into L(r) − r. On a nanoclustering curve of L(r) − r vs. r, the peak L(r) − r value is used as summary statistics for nanoclustering and is termed as Lmax. […]

H-RasG12V nanoclustering [8] = test: FLIM-FRET H-RasG12V nanoclustering in HEK cells; type: cell-based, HEK cells; rat Gal1; conditions: donor:acceptor 1:3, expression (24 h), n = 3
GST-B-RBD = GST-B-RBD (Homo sapiens, UniProt P15056); test: Pull-down with biotinylated L5UR, GST-B-RBD; type: binding; conditions: biotinylated L5UR 4 µM, proteins 2 µM; n = 3
Sequence of GST-B-RBD (P15056 155-227): as above
Procedure: (§1) Biotinylated L5UR (bio-L5UR) peptide was synthesized as described above with a PEG5-linker to link the biotin to the L5UR peptide. GST, GST-B-Raf-RBD (155–227), and His-Gal1 were prepared as described above. Each protein in the assay was used at 2 µM concentration, and the peptide was at 4 µM in a reaction of 150 µL. First, peptide and Gal1 were pre-incubated for 30 min at 37 °C, then GST-B-RBD or GST alone was added, and the reaction continued for another hour. Control reaction mixes contained DMSO-vehicle instead of the peptide. At the end of the reaction time, 10 µL of each sample was withdrawn for SDS-PAGE analysis as inputs. For pull-downs, 5 µL of the beads were taken per sample. To prepare the beads, an appropriate volume of the slurry was pipetted into 15 mL falcon tubes and centrifuged at 830×g for 1 min to remove the ethanol-containing supernatant. The falcon tube was topped up to 15 mL with distilled water and centrifuged for 1 min to remove water. This washing step was repeated three times. Finally, the beads were resuspended in distilled water so that the final bead volume was 4× diluted i.e., 20 µL were pipetted to each tube. […] The analysis was done by resolving the samples (8 µL of the input samples and 10 µL of the eluted material) on 4–20% gradient SDS-PAGE gels and analyzed by Western blotting. […]

Gal1 [9] = test: Pull-down with biotinylated L5UR, Gal1; type: binding; conditions: biotinylated L5UR 4 µM, proteins 2 µM; n = 3
Procedure: as §1

HEK cells (pERK, pAkt) = type: cell-based, human; conditions: 2 h, EGF 200 ng/mL 10 min; n = 3–8
[10] = biological target: T1, C-Raf-RBD (50-134), purified (human, UniProt P04049 50-134); test: fluorescence polarisation; competitive: non-labeled peptides 3-fold diluted, added to a complex of F-L5UR and RBD (methods: 5 nM and 200 nM; legend of Fig. 2e: 10 nM and 15 µM GST-B-RBD); 30 min at ~22 °C; four-parameter fit; conditions: both partners purified
T1 construct: also called C-RBD; source: E. coli, purified (glutathione agarose)

[11] = biological target: T2, GST-tagged B-Raf-RBD (155-227) (human, UniProt P15056 155-227); conditions: both partners purified
T2 construct: also called GST-B-RBD; GST-B-Raf-RBD; source: E. coli, purified (glutathione agarose)
T2 sequence (P15056 155-227): as above

[12] = biological target: B-Raf-derived RBD (BRET construct) (UniProt P15056)
Sequence of B-Raf-derived RBD (BRET construct) (P15056 155-227): as above

[13] = biological target: T1, C-Raf-RBD (50-134), purified; test: fluorescence polarisation; competitive: non-labeled peptides 3-fold diluted, added to a complex of F-L5UR and RBD (methods: 5 nM and 200 nM; legend of Fig. 2e: 10 nM and 15 µM GST-B-RBD); 30 min at ~22 °C; four-parameter fit; conditions: both partners purified; remark: listed apart in the source
[14] = biological target: T2, GST-tagged B-Raf-RBD (155-227); test: as above; conditions: both partners purified

L5UR peptide 22-45 (from UniProt P15814)
Kd (Gal1 (Homo sapiens) [1]): 310 µM

F-L5UR: fluorescein attached to N-terminus amino group of L5UR via aminohexanoic acid linker ({fluorescein-Ahx}-LLRPTAASQSRALGPGAPGGSSRSSLRSRWGRFLLQRGSWTGPRCWPRGFQS)
binding to GST alone (GST): no binding to GST alone; also recorded: negligible binding

GRKKRRQRRRPQ [TAT, 12-residue cell penetrating peptide derived from an HIV-protein, reference compound]
effect of peptide on H-RasG12V nanoclustering BRET (H-RasG12V nanoclustering [2]; peptide added to HEK cells, 0.1 µM to 100 µM, 2 h incubation, donor:acceptor 1:5, 200 ng Gal1 plasmid): Neither the TAT-peptide alone, nor the mutant TAT-mutL5URcore, or the non-TAT peptides L5URcore and mutL5URcore decreased the BRET-signal in either assay | pERK- and/or pAkt-levels, MIA PaCa-2 [3]: apparently non-specific increase in pERK- and/or pAkt-levels | effect of peptide on Gal1/B-RBD BRET (Gal1/B-RBD): Neither the TAT-peptide alone, nor the mutant TAT-mutL5URcore, or the non-TAT peptides L5URcore and mutL5URcore decreased the BRET-signal in either assay | pERK- and/or pAkt-levels, Hs 578 T [4]: apparently non-specific increase in pERK- and/or pAkt-levels

Gal1 (from UniProt P09382)
Kd (Gal1 (Homo sapiens) [5]): 7 µM

Anginex
displacement of F-L5UR from Gal1 (His-tagged Gal1): it can be displaced from purified His-tagged Gal1 | effect on Gal1/C-RBD FRET (Gal1/C-RBD): neither Anginex nor OTX-008 disrupted the Gal1/C-RBD interaction

CN(C)CCNC(=O)COc1c2cccc1Cc1cccc(c1OCC(=O)NCCN(C)C)Cc1cccc(c1OCC(=O)NCCN(C)C)Cc1cccc(c1OCC(=O)NCCN(C)C)C2 [OTX-008]
effect on Gal1/C-RBD FRET (Gal1/C-RBD): neither Anginex nor OTX-008 disrupted the Gal1/C-RBD interaction

Ac-LLRPTAASQSRALGPGAPGGSSRSSLRSRWGRFLLQRGSWTGPRCWPRGFQS-NH2 (N-terminus and C-terminus assumed) [L5UR]
Kd (Gal1 [6]): 310 µM | disruption of H-RasG12V nanoclustering (Lmax) (H-RasG12V nanoclustering [7]): disruption of H-RasG12V nanoclustering by L5UR- and L5UR-SNAP construct expression | effect of construct expression on H-RasG12V nanoclustering-BRET without co-expression of Gal1 (H-RasG12V nanoclustering [2]; expression (48 h), HEK cells comparatively devoid of Gal1, donor:acceptor 1:5): very similar effects even without co-expression of Gal1 | reduction of H-RasG12V nanoclustering-BRET (H-RasG12V nanoclustering [2]; expression (48 h), co-transfection of 200 ng Gal1 plasmid, donor:acceptor 1:5, Fig. 3c): ~ 33% | effect on Gal1/C-RBD FRET (Gal1/C-RBD): decreased the FRET between mGFP-Gal1 and mRFP-C-RBD | effect on H-RasG12V nanoclustering-FRET (H-RasG12V nanoclustering [8]; Gal1-augmented): decreased the Gal1-augmented H-RasG12V nanoclustering-FRET | effect on H-RasG12V nanoclustering-FRET, N-Gal1 (H-RasG12V nanoclustering [8]; dimerization-deficient N-Gal1): had no additional effect

bio-L5UR: Biotinylated L5UR with a PEG5-linker linking biotin to the L5UR peptide ({Biotin-PEG5′}-LLRPTAASQSRALGPGAPGGSSRSSLRSRWGRFLLQRGSWTGPRCWPRGFQS-NH2)
pull-down of GST-B-RBD (GST-B-RBD): pulled down Gal1 and the GST-B-RBD independently from each other | pull-down of Gal1 (Gal1 [9]): pulled down Gal1 and the GST-B-RBD independently from each other

CC(=O)Nc1cccc(-n2c(=O)n(C3CC3)c(=O)c3c(Nc4ccc(I)cc4F)n(C)c(=O)c(C)c32)c1 [trametinib, reference compound]
pAkt levels, HEK (HEK cells (pERK, pAkt)): also upregulated by trametinib

B1: FITC-tagged full-length L5UR (peptide, UniProt P15814 38-89, looked up)
peptide: {FITC-Ahx}-LLRPTAASQSRALGPGAPGGSSRSSLRSRWGRFLLQRGSWTGPRCWPRGFQS
notes: 52-mer L5UR: residues 38-89 of the unique region of the λ5-chain (λ5-UR) of the pre-B-cell receptor; also called F-L5UR; source: synthetic peptide; bought: Pepmic Co., China
binding result [10]: binds | Kd [11]: 7.3 ± 0.7 µM

B2: L5UR peptide, untagged, expressed in cells (peptide)
chain: LLRPTAASQSRALGPGAPGGSSRSSLRSRWGRFLLQRGSWTGPRCWPRGFQS
reduction of Gal1-enhanced H-RasG12V nanoclustering-BRET in HEK cells on expression of the construct (it blocks Gal1/B-RBD) [12]: 33%

B3: L5UR peptide, non-labeled (peptide, UniProt P15814 38-89, looked up)
peptide: B2 chain
notes: 52-mer L5UR: residues 38-89 of the unique region of the λ5-chain (λ5-UR) of the pre-B-cell receptor; also called full-length peptide of L5UR; source: synthetic peptide; bought: Pepmic Co., China
IC50 [13]: 4 ± 1 µM | IC50 [14]: 2 ± 1 µM
